Laboratory results as given in US10494402B2, “Peptides that stimulate subcutaneous adipogenesis” (The Regents of the University of California, priority 2012, dated 2019).
Entries after “also recorded” stand apart in the source; their conditions may differ.

Key:
Type in all cases: cell-based
[1] = test system: rat mesenchymal stem cells; test: Adipogenesis Assay 2 (dexamethasone/insulin/indomethacin induction, then peptide; Oil Red O or BODIPY); details: Assay 2
Experimental: Reagents: The dexamethasone, insulin, and Oil Red O solutions were the same as described above for assay 1. Indomethacin Solution contained 10 mM indomethacin in methanol. The BODIPY 493/503 dye was used at a concentration of 4 μM.
Adipogenesis Maintenance Media was prepared as described above.
Adipogenesis Induction Media: To prepare 501 mL of Adipogenesis Induction Media, 50 μL of the 10 mM stock solution of dexamethasone, 500 μL of the 10 mg/ml stock solution of insulin, 5 ml of a 10 mM stock solution of indomethacin, and 5 mL of a 100× stock solution of penicillin and streptomycin were added to 490 mL of mesenchymal stem cell expansion media.
Pre-adipocyte stem cells, bone marrow mesenchymal stem cells and fibroblasts such as dermal reticular and papillary fibroblasts were propagated using standard tissue culture methods. Cells were trypsinized to remove cells from the substratum, the trypsin was neutralized, and cells were counted using a hemocytometer. Cells were resuspended at 60,000 cells/ml in low glucose DMEM containing 10% calf serum. 1 mL of cell suspension per well was plated in a 24-well plate, with several wells left empty for blank well staining.
Cells were incubated overnight and had reached confluency at this point. Approximately 1.8 ml of media was removed from each well and replaced with 2 ml Adipogenesis Induction Media. For negative control wells, expansion medium only was used at this step and for subsequent media changes. For all media changes, media was replaced as gently as possible to avoid disturbing the monolayer.
Media was removed and replaced with 2 ml of maintenance medium containing either RHAMM antagonist peptides (experimental group) or insulin (concentration as in the induction medium used as positive control). […]
Media was removed and BODIPY or Oil Red O staining was performed as described above for assay 1.
As described above in Example 1, two different adipogenesis assays were used herein to assess the adipogenic effects of the peptides in rat mesenchymal stem cells. Assay 1 is an assay that is typically used to promote transdifferentiation of fibroblasts into adipocytes, whereas Assay 2 is typically used to promote differentiation of multi-potential mesenchymal progenitor cells into adipocytes. Immortalized rat bone marrow mesenchymal stem cells were used for both assays. These cells contain cells of different lineages, including fibroblasts, pre-adipocytes, pre-chondrocytes and pre-osteoblasts. Thus, Assay 1 was used to promote transdifferentiation of the fibroblast lineages into adipocytes and Assay 2 was used to promote differentiation of the pre-adipocytes into adipocytes.
As described in Example 1 above, the priming stimulus for Assay 1 includes IBMX (3-isobutyl-1-methylxanthine) and dexamethasone, and then insulin as the final adipogenic stimulus. The priming stimulus for assay 2 includes IBMX, dexamethasone and indomethacin, and then insulin as the final adipogenic stimulus.

[2] = test system: human reticular fibroblasts (HRF); test: Transdifferentiation of primary human dermal fibroblasts, reticular; details: 5 μg/ml, peptide replaced insulin
Experimental: The B peptide and the KSEVSK 6-mer were also tested for their adipogenic effect on primary human dermal fibroblasts from the upper (papillary) and lower (reticular) dermal layers. The primary human fibroblasts were obtained from dermatome sections of biopsies from human volunteers. Cells were cultured and exposed to adipogenic medium. In these experiments, the B peptide and the KSEVSK 6-mer replaced insulin as the adipogenic stimulus. The peptides were used at a concentration of 5 μg/ml. Adipogenesis was assessed by Oil Red O staining. […] White arrows show fat droplets.

[3] = test system: 2D rat Pre-adipocytes (rat mesenchymal stem cells); test: Adipogenic potential ranking in 2D tissue culture, rat pre-adipocytes; details: ranked on a scale of 0-5 with 5 representing the highest possible score
Experimental: Examples of the adipogenic effects of RHAMM antagonists (peptide B (SEQ ID NO: 2), peptide P15-1 (SEQ ID NO. 1), and the antibody to peptide B) are summarized in Table 1. Peptide P15-1, peptide B, and a RHAMM antibody were assayed for their effects on pre-adipocyte stem cells in culture and when injected into the dermis of aged rats. Reagents were ranked on a scale of 0-5 with 5 representing the highest possible score and a completely filled in Harvey ball. “2D” refers to two-dimensional tissue culture.

[4] = test system: human adipose-derived stem cells (h-ADSCs); test: Differentiation of human adipose-derived stem cells (h-ADSCs); details: for adipogenesis, absorbance of extracted Oil Red O: 5 μg/ml in adipogenic cocktail in the absence of insulin and PPARγ agonist, two weeks; for adipogenesis (micrographs) in the absence of PPARγ agonist / adipogenesis (micrographs) in the presence of PPARγ agonist: B peptide 5 μg/ml, 6-mer 5 μg/ml or 20 μg/ml
Source text: The Adipocyte Differentiation Medium contained DMEM/Ham's F-12 (1:1 v/v), HEPES pH 7.4, fetal bovine serum, biotin, penicillin, streptomcyin, amphotericin B, pantothenate, human insulin, dexamethasone, isobutylmethylxanthine (IBMX) and a PPARγ agonist. This positive stimulus was used as the positive control. […] The upper right panel and the lower left panel of FIG. 14 provide two different fields of view of the h-ASDCs exposed to the adipogenic cocktail at 4× magnification.
Monolayers that were maintained in Preadipocyte Medium only (ZenBio catalog no. PM-1, containing DMEM/Ham's F-12 (1:1 v/v), HEPES 7.4, fetal bovine serum, penicillin, streptomcyin, and amphotericin B) or monolayers that were exposed to the adipogenic cocktail without insulin and PPARγ agonist were both used as negative controls. […] The negative controls shown in FIG. 15 were exposed to Preadipocyte Medium only. […] The adipogenic peptides (peptide B and the KSEVSK 6-mer) were mixed into adipogenic cocktail that lacked the PPARγ agonist and/or insulin and used as the experimental condition.
To quantify the adipogenic activity of the KSEVSK 6-mer (SEQ ID NO: 3) and the B peptide (SEQ ID NO: 2), h-ADSCs were exposed to 5 μg/ml of these peptides in the adipogenic cocktail in the absence of insulin and PPARγ agonist). The experiment was terminated two weeks after the addition of adipogenic mixtures. At this time, photographs of monolayers were taken and the lipid droplet accumulation was quantified by measuring the absorbance of extracted Oil Red 0. […] The peptides stimulated adipogenesis to a similar extent when the PPARγ agonist alone or both the PPARγ agonist and insulin were deleted from the adipogenic cocktail (not shown).
In further studies using h-ADSCs, two different protocols were used. In the first of these protocols, h-ADSCs were exposed to the adipogenic cocktail plus the KSEVSK 6-mer (SEQ ID NO: 3) or B peptide (SEQ ID NO: 2) at concentrations of 5 μg/ml or 20 μg/ml. […] In the second of these protocols, h-ADSCs were exposed to adipogenic cocktail in which the PPARγ agonist was replaced with either the KSEVSK 6-mer or the B peptide at concentrations of 5 μg/ml or 20 μg/ml. […] Statistical analysis were performed compared to negative control. Data presented as mean±standard error (n=3).

Substance	Fold adipogenic induction vs. negative control [1]	Specific activity (activity/1000 daltons) [1]	transdifferentiation into adipocytes, Oil Red O staining ([2]; listed as B peptide)	adipogenic potential, 2D rat Pre-adipocytes (rat mesenchymal stem cells) [3]	adipogenesis, absorbance of extracted Oil Red O [4]	adipogenesis (micrographs) in the absence of PPARγ agonist [4]	adipogenesis (micrographs) in the presence of PPARγ agonist [4]	transdifferentiation into adipocytes, Oil Red O staining [2]	adipogenesis (lipid droplets) compared with positive control ([4]; two weeks after initiation, peptide in cocktail lacking PPARγ agonist and/or insulin)
KLKDENSQLKSEVSK [peptide B]	4.0	2.17 activity/1000 daltons	stimulated the transdifferentiation; also recorded: stimulated the trans-differentiation	5	strongly promoted adipogenesis compared to the negative control (p<0.05)	underwent adipogenesis	underwent adipogenesis		
KSEVSK [KSEVSK 6-mer]	2.5	3.32 activity/1000 daltons			strongly promoted adipogenesis compared to the negative control (p<0.05)	underwent adipogenesis	underwent adipogenesis	stimulated the transdifferentiation	more effective at promoting adipogenesis than the positive control
